Target: T1, vaccinia virus TOP1 (vaccinia DNA Topoisomerase I) (Vaccinia virus WR, UniProt P68698)
T1 construct: gene OPG111; TOP1 described as 314 amino acids; amine-coupled to GLH chip
Assay: biochemical
Type: binding

SMILES	Kd
C[C@@H]1O[C@@H](Oc2c(-c3cc(O)c(O)c(O)c3)oc3cc(O)cc(O)c3c2=O)[C@H](O)[C@H](O)[C@H]1O [Myricitrin]	3.54 µM
CC1COc2c(N3CCN(C)CC3)c(F)cc3c(=O)c(C(=O)O)cn1c23 (stereo not shown) [Ofloxacin]	5.46 µM
O=C(/C=C/c1ccc(O)c(O)c1)O[C@H](Cc1ccc(O)c(O)c1)C(=O)O [Rosmarinic acid]	2.16 µM
C[C@@H]1O[C@@H](Oc2c(-c3ccc(O)c(O)c3)oc3cc(O)cc(O)c3c2=O)[C@H](O)[C@H](O)[C@H]1O [Quercitrin]	4.77 µM

From paper PMC9919579 (Molecules, 2023)
